The values that follow are results of earlier work, collected in patent publication US12502363B2, “Ketamine and ketamine/nap for treatment of ADNP syndrome and related neurological conditions” (ADNP Kids Research Foundation, priority 2019, dated 2025).

One data set has as its system ADNP. The conditions noted are these: 5 mg/kg ketamine, healthy rats without ADNP mutations.
For data set [1], the system named is ADNP gene expression in the somatosensory cortex. The conditions noted are these: somatosensory cortex of post-natal day 7 rats, anesthetic dose of ketamine (20 mg/kg), microarray.
The subject of data set [2] is activated caspase-3 (AC3). Conditions: anesthetic doses of ketamine.

On to `CNC1(c2ccccc2Cl)CCCCC1=O` (stereo not drawn) [ketamine, Ketamine], for which the “ADNP in the Fasciola Cinereum (FC) and SSC layers II/III” value with ADNP is “increased ADNP”. For the same compound, the ADNP gene expression result in data set [1] is given as “increases significantly”. Also, in data set [2], the “levels of pro-apoptotic enzyme activated caspase-3 (AC3)” value is given as “increased levels”.
